Test system: transcriptional activity of NRF2 (ARE activity)
Assay: miRNA library screening using ARE-luciferase reporter system
Type: cell-based, human
Conditions: HeLa cells, 20 nmol/L miRNA, 48 hours after transfection, luciferase activity per living cell
Procedure: The luciferase reporter plasmid was prepared by inserting a human NQO-1 promoter region 5′-[…]-3′ (SEQ ID NO: 19) including an antioxidant response element (ARE) into an Mlu1/Xho1 site in pGL3 vector (Promega). Specifically, a pair of synthetic oligonucleotides complementary with each other shown in Table 2 (upper; SEQ ID NO: 20, lower; SEQ ID NO: 21) were annealed, to thereby form a double-stranded DNA, and a double-stranded DNA having cohesive ends complementary to the Mlu1/Xho1 site was prepared by use of Mlu1 and Xho1. The thus-produced double-stranded DNA fragment was inserted into the Mlu1/Xho1 site, to thereby yield a recombinant pGL3 (reporter plasmid) of interest.
Firstly, the reporter plasmid was transiently transfected into HeLa cells (1×10^7 cells/dish) in a 10 cm dish. 24 hours after transfection, the cells (1×10^4 cells/well) were seeded on a 96-well plate, and the next day, 20 nmol/L of each of the 470 double-stranded RNA fragments, derived from Pre-miRNA precursor library-Human V3 (Ambion) or control miRNA was transfected. After two days, firefly luciferase activity was measured by means of a microplate reader (ARVOmx; Perkinelmer) using Bright-Glo Luciferase Assay System (Promega). At the same time, living cells were detected through CV staining assay. ARE activity was calculated from the luciferase activity per living cell.
For the screening of 470 double-stranded RNAs, HeLa cells were sequentially transfected with each miRNA together with the reporter plasmid, and then the ARE activity in each transfected cell was calculated as the luciferase activity per living cell, as measured by the crystal violet (CV) staining assay. Briefly, the ARE-luciferase reporter plasmid and each miRNA from the library were sequentially transfected into HeLa cells, and after 48 hours, luciferase activity or the number of living cells was measured using the Bright-GIo Luciferase Assay System or crystal violet (CV) staining assay, respectively. The ARE activity for each miRNA-transfected cell was calculated as the luciferase activity per living cell.
The ARE activity relative to that in control-miRNA-transfected cells is indicated on the vertical axis. Eight miRNAs with a relative ratio of 0.5 or less were identified as candidates by this screening system. Also, eight miRNAs with a relative ratio of 1.5 or more were similarly identified as candidates by this screening system.

ARE activity relative to that in control-miRNA-transfected cells (relative ratio), large decrease:
hsa-miR-153: low-value miRNA from Pre-miRNA precursor library; mature sequence UUGCAUAGUCACAAAAGUGAUC, SEQ ID NO: 7 (listed as RNA, chemistry not given here; listed as Homo sapiens)
hsa-miR-337: low-value miRNA from Pre-miRNA precursor library; mature sequence GAACGGCUUCAUACAGGAGUU, SEQ ID NO: 6 (listed as RNA, chemistry not given here; listed as Homo sapiens)
hsa-miR-556: low-value miRNA from Pre-miRNA precursor library; mature sequence GAUGAGCUCAUUGUAAUAUGAG, SEQ ID NO: 8 (listed as RNA, chemistry not given here; listed as Homo sapiens)
hsa-miR-639: low-value miRNA from Pre-miRNA precursor library; mature sequence AUCGCUGCGGUUGCGAGCGCUGU, SEQ ID NO: 5 (listed as RNA, chemistry not given here; listed as Homo sapiens)
